Results from patent US7164002B2, “FVIIa antagonists” (Genentech, Inc., priority 2002, dated 2007).

Legend:
[1] = biological target: T1, TF-FVIIa (Homo sapiens, UniProt P08709); settings: literature, cited from earlier work; for maximal extent of inhibition of the amidolytic activity: saturating concentrations of peptide
Target sequence in this assay (P13726 33-251 partner limits assumed, one chain of several): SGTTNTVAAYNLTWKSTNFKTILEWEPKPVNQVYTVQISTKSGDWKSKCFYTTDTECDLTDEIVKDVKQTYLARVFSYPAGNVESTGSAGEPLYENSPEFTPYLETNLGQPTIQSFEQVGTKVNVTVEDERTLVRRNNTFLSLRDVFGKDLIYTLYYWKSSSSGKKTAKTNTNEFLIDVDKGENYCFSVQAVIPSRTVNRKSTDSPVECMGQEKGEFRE

[2] = biological target: T1, TF-FVIIa; settings: literature, cited from earlier work; for maximal inhibition of FX activation: saturating concentrations of peptide
Target sequence in this assay (P13726 33-275 partner limits assumed, one chain of several): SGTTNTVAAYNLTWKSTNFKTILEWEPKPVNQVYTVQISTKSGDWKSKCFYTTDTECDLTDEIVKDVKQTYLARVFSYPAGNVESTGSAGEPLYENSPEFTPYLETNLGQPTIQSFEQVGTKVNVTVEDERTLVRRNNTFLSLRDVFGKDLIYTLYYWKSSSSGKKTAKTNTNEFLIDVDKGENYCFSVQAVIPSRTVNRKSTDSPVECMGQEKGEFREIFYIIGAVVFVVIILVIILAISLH

[3] = tested on: citrated pooled normal human plasma; test: Prothrombin time (PT) clotting assay initiated by TF and Ca2+; assay type: biochemical; settings: Innovin
Experimental: The prothrombin time (PT) assay was performed in citrated pooled normal human plasma as described previously (Dennis, M. S., et al., (2000) Nature, 404: 465–470). Clotting times were determined using an ACL 300 Coagulation Analyzer (Coulter Corp., Miami, Fla.) using Innovin (human relipidated TF and Ca2+) from Dade International Inc. to initiate the assay.

[4] = biological target: T2, FVIIa (Homo sapiens, UniProt P08709); settings: pH 7.2; read-out: binding constant Kd to FVIIa; cited from earlier work
T2 sequence (P08709 213-466 limits assumed): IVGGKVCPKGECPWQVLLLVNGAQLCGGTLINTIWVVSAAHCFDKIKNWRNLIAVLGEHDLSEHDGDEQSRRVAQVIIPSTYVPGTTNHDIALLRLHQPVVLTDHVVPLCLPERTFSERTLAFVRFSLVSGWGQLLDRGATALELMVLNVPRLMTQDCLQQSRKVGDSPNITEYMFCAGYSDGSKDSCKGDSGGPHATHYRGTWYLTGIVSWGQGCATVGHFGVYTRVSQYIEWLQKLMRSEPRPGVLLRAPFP
T2 sequence (P08709 61-212 limits assumed): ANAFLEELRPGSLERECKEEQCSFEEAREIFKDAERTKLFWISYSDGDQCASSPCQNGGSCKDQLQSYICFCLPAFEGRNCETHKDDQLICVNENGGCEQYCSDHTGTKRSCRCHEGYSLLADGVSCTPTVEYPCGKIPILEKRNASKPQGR

[5] = biological target: T1, TF-FVIIa; test: Inhibition of TF-FVIIa catalyzed activation of FX; assay type: biochemical; settings: saturating peptide
Target sequence in this assay (P13726 33-275 partner limits assumed, one chain of several): as the sequence (P13726 33-275 partner limits assumed, one chain of several) above
Experimental: Inhibition of FX activation by TF-VIIa was determined with 300 pM relipidated TF1-243, 20 pM FVIIa , and 165 nM FX at 25° C. as a function of peptide concentration essentially as described (Dennis, M. S., et al., (2000) Nature, 404: 465–470; Kelley, R. F., et al., (1997) Blood, 89: 3219–3227). TF was incorporated into phospholipid vesicles and quantified as previously described (Kelley, R. F., et al., (1997) Blood, 89: 3219–3227). The linear rates of FXa generation can be expressed as mOD405/min/min or as fractional activities (vi/v0).

EEWEVACWTWETCER [Peptide E-76]
maximal extent of inhibition of the amidolytic activity [1]: 50%
IC50 for inhibition of activation of FX to FXa by TF-FVIIa [2]: nanomolar range
maximal inhibition of FX activation [2]: 90%

EEWEVLCWTWETCER [Peptide A-183]
inhibition of amidolytic activity (in words) [1]: potent but incomplete inhibition
maximal extent of inhibition of the amidolytic activity [1]: 32%
fold prolongation of the clotting time [3]: 1.6 fold
IC50 for inhibition of activation of FX to FXa by TF-FVIIa [2]: nanomolar range
maximal inhibition of FX activation [2]: 78%
Kd [4]: 2.8 nM

Z-GGSGGDDDDK-EEWEVLCWTWETCER [Z-A-183]
extent of inhibition of FX activation upon saturation [5]: 80%
